Source: patent US20080003215A1, “Use of pre-dissolved pristinamycin-type and polyether ionophore type antimicrobial agents in the production of ethanol” (priority 2006, published 2008)

Columns and labels:
Yeast #1 = experiment: Solvent compatibility with yeast corn mash fermentation, Yeast #1; settings: Yeast #1, corn mash
Experimental: (§1) Dialkylsulfoxides and alkyl pyrrolidones, where the alkyl groups are independently C1 to C4, are particularly preferred. Dimethylsulfoxide (DMSO) and N-Methyl-2-Pyrrolidone (M-Pyrol or NMP) compatibility with yeast corn mash fermentations were evaluated with two yeasts (Yeast#1 and Yeast#2) commercially used in the fuel ethanol industry. Concentrations of 0 to 1200 ppm of either solvent were added at the beginning of dry-milled corn-mash fermentations along with either yeast.
(§2) Sterile saccharified 26% wt. %/v corn mash was prepared using substantially the same procedure described in Example 2. To each of 6 pre-sterilized Celstir™ fermentors (Wheaton Instruments, Millville, N.J.), 500 g sterile mash was aseptically added. The fermentors were temperature controlled to 32° C. using circulating water baths (Haake D8;G, Berlin, Germany) to pump water through the jackets of the Celstir fermentors. Magnetic stirrers (IKA-Lavortechnik, Staufen, Germany) were used to mix the fermentors at approximately 200 RPM. […] Then, to each fermentator was added 1) 1 ml of 0.2 μm filter-sterilized Urea stock solution (8 mM urea in fermentors); 2) 1 ml filter sterilized aqueous DMSO (Gaylord Chemical, CAS#67-68-5) or aqueous M-Pyrol (ISP, CAS#872-50-) solutions; and 3) 1.027 g Yeast#1 or Yeast#2 commercial active dry yeasts in 18 ml sterile water.
Samples (22 ml) were taken at 0, 6, 12, 24, 36, and 48 h and placed on ice to prevent growth. An 11 ml aliquot of each sample was serially diluted in 0.1% w/v sterile peptone water, and microbiologically plated onto MRS agar plates in duplicate. All plates were incubated for 48 h at 30° C. in an anaerobic CO2 incubation chamber, and manually enumerated for viable Lactobacilli. The remaining 11 ml aliquot of each sample was centrifuged (10K RPM, 4° C., 20 minutes) in a Sorvall RC-5C centrifuge. The liquid supernatant was then passed through a 0.2 μm membrane filter to remove any particulates and frozen for future analysis. Lactic acid, glycerol, ethanol, acetic acid, and glucose concentrations were determined by HPLC analysis. The samples were thawed and diluted to the required extent with Milli-Q water. Aliquots of the diluted samples (100 μl) were each mixed with an equal volume of 2% w/v boric acid (internal standard), and injected into a Biorad HPX-87H Aminex™ column equilibrated at 40° C. The eluent was 5 mM sulfuric acid flowing at a rate of 0.7 ml/min. The components were detected by a differential refractometer (Model 4210, Waters Chromatographic Division, Milford, Mass.) and the subsequent data processed by the supplied Waters Millenium32 software. All fermentations were performed in duplicate.

Yeast #2 = experiment: Solvent compatibility with yeast corn mash fermentation, Yeast #2
Experimental: as §1, §2
Samples (22 ml) were taken at 0, 6, 12, 24, 36, and 48 h and placed on ice to prevent growth. An 11 ml aliquot of each sample was serially diluted in 0.1% w/v sterile peptone water, and microbiologically plated onto MRS agar plates in duplicate. All plates were incubated for 48 h at 30° C. in an anaerobic CO2 incubation chamber, and manually enumerated for viable Lactobacilli. […] Lactic acid, glycerol, ethanol, acetic acid, and glucose concentrations were determined by HPLC analysis. […] The components were detected by a differential refractometer (Model 4210, Waters Chromatographic Division, Milford, Mass.) and the subsequent data processed by the supplied Waters Millenium32 software. […]

humans = settings: cited from earlier work

C[S+](C)[O-] [DMSO, Dimethylsulfoxide]
Ethanol production (inhibition) (Yeast #1; 0 to 1200 ppm solvent): did not inhibit ethanol production
Yeast viability and stress (glycerol) (Yeast #1; 1000 ppm solvent, 48 hours of exposure): does not appear to affect the viability of Yeast #1 or stress Yeast #1
Yeast performance (viability, glycerol, ethanol) (Yeast #2; Yeast #2, corn mash, 0 to 1200 ppm solvent): no adverse effect on yeast performance

CN1CCCC1=O [NMP, N-Methyl-2-Pyrrolidone]
Ethanol production (Yeast #1; 1000 ppm solvent (control 8.1%)): 7.8%
Yeast viability (Yeast #1; solvent concentrations above 400 ppm): slight decline in yeast viability
Ethanol production (Yeast #2; Yeast #2, corn mash, 1000 ppm solvent, 48 hours (control 10%)): 9.1%
Ethanol concentration trend (Yeast #2; Yeast #2, solvent concentrations >400 ppm): consistent trend towards lower concentrations of ethanol

CCCCOC(=O)C(C)O (stereo not drawn) [n-butyl lactate]
Toxic concentration in air (humans; humans, in air): about 4 ppm
Toxicity classification (humans; intraperitoneal route): classified as a poison by intraperitoneal route
